# Earlier results, collected in patent US12295943B2 (Closed Loop Medicine Ltd., priority 2023, dated 2025).
# Read-outs that look alike come from different tables or passages of the source.
# How the values were obtained:
# [1] = tested on: patients with nonvalvular AF
# CYP3A4 = CYP3A4 (Homo sapiens, UniProt P08684); details: CYP3A4, linked with P-glycoprotein transporter
# [2] = tested on: metabolic enzymes or transport mechanisms; details: in vitro
# [3] = for trough plasma level range: steady state
# [4] = not given; remark: listed apart in the source
# [5] = not given; remark: listed apart in the source
# [6] = in vivo
# [7] = not given; remark: listed apart in the source
# stroke = details: AF patients
# [8] = high body weight (≥120 kg) vs reference group
# [9] = low body weight (≤50 kg) vs reference group (65-85 kg)
# CYP3A4, sequence (P08684 whole entry): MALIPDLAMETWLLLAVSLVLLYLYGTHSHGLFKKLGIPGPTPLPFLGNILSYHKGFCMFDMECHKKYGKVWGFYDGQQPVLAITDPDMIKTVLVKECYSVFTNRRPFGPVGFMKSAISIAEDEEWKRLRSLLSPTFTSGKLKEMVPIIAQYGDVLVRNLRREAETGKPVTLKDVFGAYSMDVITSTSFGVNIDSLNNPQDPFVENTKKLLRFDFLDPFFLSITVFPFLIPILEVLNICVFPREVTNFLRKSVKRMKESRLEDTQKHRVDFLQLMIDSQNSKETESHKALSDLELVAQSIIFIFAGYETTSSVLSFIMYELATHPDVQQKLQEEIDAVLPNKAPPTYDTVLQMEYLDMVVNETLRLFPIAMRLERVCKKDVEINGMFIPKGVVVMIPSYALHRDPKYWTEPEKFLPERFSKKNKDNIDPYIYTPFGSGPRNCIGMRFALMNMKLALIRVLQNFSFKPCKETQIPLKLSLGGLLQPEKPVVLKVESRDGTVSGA
compound,measurement,setting,value
COc1ccc(-n2nc(C(N)=O)c3c2C(=O)N(c2ccc(N4CCCCC4=O)cc2)CC3)cc1 [Apixaban],efficacy compared with warfarin,[1],superior to warfarin
same,risk of intracranial bleeds compared with warfarin,[1],small reduction
same,substrate status,CYP3A4,substrate primarily for CYP3A4
same,increase in mean apixaban AUC 0-∞,with Clarithromycin,1.6 fold
same,increase in mean apixaban Cmax,with Clarithromycin,1.3 fold
same,increase in AUC,with Clarithromycin (Table 2),~50% increase in Cmax and AUC
same,increase in Cmax,with Clarithromycin (Table 2),~50% increase in Cmax and AUC
same,increase in AUC,with Diltiazem,~40% increase in AUC
same,increase in AUC,with Ketaconazole or other CYP 3A4/PgP inhibitors,~100% increase in AUC
same,increase in exposure (drug levels),with Ketoconazole (CYP 3A4 inhibitor),~2 fold
same,decrease in AUC,with Riampin or other CYP 3A4 inducers,~50% decrease in AUC
same,decrease in exposure,with rifampicin,~50%
same,inhibition or induction of metabolic enzymes or transport mechanisms,[2],does not inhibit or induce
same,trough plasma level range,[3]; 2.5 mg dose,20 to 180 ng/mL
same,trough plasma level range,[3]; 5 mg dose,10 to 310 ng/mL
same,variability in drug plasma levels across the population for a given dose,[3]; in vivo,6-10 FOLD
same,AGEP,"[4]; age coefficient on non-renal clearance, AGEREF 60 years",0.267
same,VC/F,[4]; apparent central volume of distribution,32.1 L
same,Q/F,[4]; apparent inter-compartmental clearance,1.62 L/h
same,VP/F,[4]; apparent peripheral volume of distribution,19.8 L
same,CLNR/F (Ref),[4]; non-renal component of apparent clearance,2.52 L/h
same,"θ1, θ2",[4]; power coefficients for CrCL versus CL/F,1.0
same,┌,[4]; shape parameter of dose versus relative bioavailability,0.853
same,WTP,"[4]; weight coefficient on Vc/F, WTref 85.0 kg",0.523
same,lower apixaban AUC0-∞,[5]; [8],~23%
same,lower apixaban Cmax,[5]; [8],approximately 31%
same,higher AUC0-∞,[5]; [9],~20%
same,higher maximum apixaban plasma concentration (Cmax),[5]; [9],approximately 27%
same,principle side effect,[6],"increased bleeding tendency, with undesired haemorrhage, sometimes fatal"
same,observed drug plasma levels lower in the evening than in the morning,[7]; evening versus morning,~50%
same,coefficient of variance for AUC of the plasma level time profile,[7]; healthy human volunteers,~30%
same,coefficient of variance for Cmax,[7]; healthy human volunteers,~30%
same,"direct intestinal excretion into the faeces, unchanged drug","[7]; human, in vivo",34%
same,dose excreted by renal route,"[7]; human, in vivo",20-25%
same,elimination via metabolism,"[7]; human, in vivo",~20%
same,renal clearance,"[7]; human, in vivo",15 mL/min
same,renal clearance as share of GFR,"[7]; human, in vivo",~12 % of GFR
same,total body clearance,"[7]; human, in vivo",50 mL/min
same,total body clearance as share of liver blood flow,"[7]; human, in vivo",~3 % liver blood flow
same,absolute oral bioavailability,"[7]; human, in vivo, po",~50%
same,half-life after iv or oral solution,[7]; iv or oral solution,~5 h
same,time of maximum concentration after oral administration,"[7]; oral, without food",3 to 4 h
same,"time of maximum concentration, range","[7]; oral, without food",1 to 6 h
same,increase in levels at steady state compared to the first dose,[7]; repeated administration,~65%
same,time to steady state after repeated administration,[7]; repeated administration,≤ 3 days
same,delay of maximum concentration by food,[7]; with food,~1 h
same,"time of maximum concentration with food, range",[7]; with food,1 to 9 h
[H]/N=C(/N)c1ccc(NCc2nc3cc(C(=O)N(CCC(=O)O)c4ccccn4)ccc3n2C)cc1 [dabigatran],share cleared through the kidneys,"[7]; human, in vivo",~80%
CC(=O)CC(c1ccccc1)c1c(O)c2ccccc2oc1=O (stereo not shown) [warfarin],reduction of stroke,stroke,about 60%
